Measured values published in patent US12319709B2, “Diaryl trehalose compounds and uses thereof” (THE UNIVERSITY OF MONTANA, priority 2018, dated 2025).

Assays:
[1] = test system: peripheral blood mononuclear cells (PBMCs); assay: Cytokine analysis of supernatants of stimulated, freshly prepared PBMCs; assay type: cell-based, human; details: compounds solubilized in DMSO
Experimental: (§1) Tumor necrosis factor alpha (TNFα) and IL-6 production in peripheral blood mononuclear cells (PBMCs) was measured after exposure to various concentrations of the DAT compounds synthesized as shown above. Initial studies focused on two different methods of delivery of the DAT compounds to PBMC cultures. In the first delivery method, the indicated derivative compound was dissolved in isopropanol, serially diluted, and then dried to the bottom of a tissue culture plate. In the second delivery method, the indicated derivative compound was dissolved in DMSO and serially diluted into tissue culture media. In each method, PBMCs were added to the compounds and incubated at 37° C. TNFα (FIG. 1A) and IL-6 (FIG. 1B) were measured after 18-24 hours after treatment by ELISA assay.
Supernatants from the freshly prepared PBMCs stimulated with DAT compounds solubilized in DMSO (Example 5A) were analyzed for the cytokines that help drive Th1 cell or Th17 cell adaptive immune responses; IFNγ, IL-12 p70, IL-6, IL-1β, and IL-23. Minimal amounts of IL-12p70 were detected and IFNγ was undetectable. Therefore, both are not reported.

RAW264.7 cells = assay: Cytokine (TNFα) response of mouse macrophage cell line; Table 2 'Murine'; assay type: cell-based; design: Maximum cytokine response Murine: unit not given here; details: NR = no response
Experimental: Compounds were also tested in a mouse macrophage cell line (FIG. 4B). RAW264.7 cells were subjected to increasing concentrations of the compounds and assessed for production of the cytokine TNFα.

[2] = test system: peripheral blood mononuclear cells (PBMCs); assay: IL-6 induction in fresh human PBMCs; assay type: cell-based; details: for Maximum cytokine response h-IL-6 / Minimal Effective Concentration h-IL-6: human IL-6, NR = no response; for IL-6 production / activity in fresh PBMCs from multiple donors (in words): compounds in DMSO serially diluted in media, supernatants 18 h after treatment
Experimental: as §1
The isolated PBMCs were exposed to increasing concentrations of the indicated compounds resuspended in DMSO and serially diluted in media. IL-6 levels were determined from supernatants eighteen hours after treatment (FIG. 3).

SMILES	TNFα response in PBMCs (in words) [1]	Maximum cytokine response Murine (RAW264.7 cells)	Minimal Effective Concentration Murine (RAW264.7 cells) [µM]	Maximum cytokine response h-IL-6 [2] [OD]	Minimal Effective Concentration h-IL-6 [2] [µM]	IL-6 production / activity in fresh PBMCs from multiple donors (in words) [2]
COc1cc(/C=C/C(=O)OC[C@H]2O[C@H](O[C@H]3O[C@H](COC(=O)/C=C/c4cc(OC)c(OC)c(OC)c4)[C@@H](O)[C@H](O)[C@H]3O)[C@H](O)[C@@H](O)[C@@H]2O)cc(OC)c1OC [UM1020]	higher responding	3.2	33.3	1.5	333	
CC(C)c1cc(C(=O)OC[C@H]2O[C@H](O[C@H]3O[C@H](COC(=O)c4cc(C(C)C)cc(C(C)C)c4O)[C@@H](O)[C@H](O)[C@H]3O)[C@H](O)[C@@H](O)[C@@H]2O)c(O)c(C(C)C)c1 [UM1023, 6,6′-bis-(3,5-di-iso-propylsalisate)-α,α-trehalose]	higher responding	2.5	0.45			lower activity
COc1ccc(/C=C/C(=O)OC[C@H]2O[C@H](O[C@H]3O[C@H](COC(=O)/C=C/c4ccc(OC)c(OC)c4)[C@@H](O)[C@H](O)[C@H]3O)[C@H](O)[C@@H](O)[C@@H]2O)cc1OC [UM1019]	higher responding	2.3	111	2	333	
O=C(/C=C/c1ccc(O)c(O)c1)OC[C@H]1O[C@H](O[C@H]2O[C@H](COC(=O)/C=C/c3ccc(O)c(O)c3)[C@@H](O)[C@H](O)[C@H]2O)[C@H](O)[C@@H](O)[C@@H]1O [UM1021]	higher responding	3	333	2	333	induced some cytokine production
CCCCCCCCCCOc1cc(C(=O)OC[C@H]2O[C@H](O[C@H]3O[C@H](COC(=O)c4cc(OCCCCCCCCCC)c(OCCCCCCCCCC)c(OCCCCCCCCCC)c4)[C@@H](O)[C@H](O)[C@H]3O)[C@H](O)[C@@H](O)[C@@H]2O)cc(OCCCCCCCCCC)c1OCCCCCCCCCC [UM1099]		0.005	3.4	3.2	11	
O=C(OC[C@H]1O[C@H](O[C@H]2O[C@H](COC(=O)c3cc([N+](=O)[O-])cc([N+](=O)[O-])c3)[C@@H](O)[C@H](O)[C@H]2O)[C@H](O)[C@@H](O)[C@@H]1O)c1cc([N+](=O)[O-])cc([N+](=O)[O-])c1 [UM1080]		1	33	2	100	
CCOc1cc(C(=O)NC[C@H]2O[C@H](O[C@H]3O[C@H](CNC(=O)c4cc(OCC)c(OCC)c(OCC)c4)[C@@H](O)[C@H](O)[C@H]3O)[C@H](O)[C@@H](O)[C@@H]2O)cc(OCC)c1OCC [UM1110]		11	2.5	1	100	
CCCCCCCCOc1cc(OCCCCCCCC)cc(C(=O)OC[C@H]2O[C@H](O[C@H]3O[C@H](COC(=O)c4cc(OCCCCCCCC)cc(OCCCCCCCC)c4)[C@@H](O)[C@H](O)[C@H]3O)[C@H](O)[C@@H](O)[C@@H]2O)c1 [UM1093]		<.001	3.4	3.4	1.2	
COc1cc(C)c(C(=O)OC[C@H]2O[C@H](O[C@H]3O[C@H](COC(=O)c4c(C)cc(OC)cc4OC)[C@@H](O)[C@H](O)[C@H]3O)[C@H](O)[C@@H](O)[C@@H]2O)c(OC)c1 [UM1022]	higher responding	3.3	37	3	333	reproducibly induced potent, robust IL-6 production
O=C(OC[C@H]1O[C@H](O[C@H]2O[C@H](COC(=O)c3cc(C(F)(F)F)ccc3C(F)(F)F)[C@@H](O)[C@H](O)[C@H]2O)[C@H](O)[C@@H](O)[C@@H]1O)c1cc(C(F)(F)F)ccc1C(F)(F)F [UM1066]		3	100	2.6	33.3	
CC(C)(C)c1cc(C(=O)NC[C@H]2O[C@H](O[C@H]3O[C@H](CNC(=O)c4cc(C(C)(C)C)cc(C(C)(C)C)c4O)[C@@H](O)[C@H](O)[C@H]3O)[C@H](O)[C@@H](O)[C@@H]2O)c(O)c(C(C)(C)C)c1 [UM1088]		1.3	0.4	3.5	2.5	
CCCCOc1cc(C(=O)OC[C@H]2O[C@H](O[C@H]3O[C@H](COC(=O)c4cc(OCCCC)c(OCCCC)c(OCCCC)c4)[C@@H](O)[C@H](O)[C@H]3O)[C@H](O)[C@@H](O)[C@@H]2O)cc(OCCCC)c1OCCCC [UM1096]		0.005	3	3.2	2.5	
O=C(OC[C@H]1O[C@H](O[C@H]2O[C@H](COC(=O)c3ccc(C(F)(F)F)cc3C(F)(F)F)[C@@H](O)[C@H](O)[C@H]2O)[C@H](O)[C@@H](O)[C@@H]1O)c1ccc(C(F)(F)F)cc1C(F)(F)F [UM1084]		2.9	33	3	100	
CC(C)(C)CC(C)(C)c1ccc(O)c(C(=O)OC[C@H]2O[C@H](O[C@H]3O[C@H](COC(=O)c4cc(C(C)(C)CC(C)(C)C)ccc4O)[C@@H](O)[C@H](O)[C@H]3O)[C@H](O)[C@@H](O)[C@@H]2O)c1 [UM1117]		11	3	9	33.3	
O=C(OC[C@H]1O[C@H](O[C@H]2O[C@H](COC(=O)c3c(C(F)(F)F)cccc3C(F)(F)F)[C@@H](O)[C@H](O)[C@H]2O)[C@H](O)[C@@H](O)[C@@H]1O)c1c(C(F)(F)F)cccc1C(F)(F)F [UM1065]		2.5	100	3	3.7	
Cc1ccc(C(=O)OC[C@H]2O[C@H](O[C@H]3O[C@H](COC(=O)c4ccc(C)cc4C(F)(F)F)[C@@H](O)[C@H](O)[C@H]3O)[C@H](O)[C@@H](O)[C@@H]2O)c(C(F)(F)F)c1 [UM1085]		2.2	33	3	100	
CC(C)(C)c1cc(C(C)(C)C)c(O)c(C(=O)OC[C@H]2O[C@H](O[C@H]3O[C@H](COC(=O)c4c(O)c(C(C)(C)C)cc(C(C)(C)C)c4O)[C@@H](O)[C@H](O)[C@H]3O)[C@H](O)[C@@H](O)[C@@H]2O)c1O [UM1046]		0.8	0.4	3	20	
